Literature values as cited in US20060063742A1, “Method of treatment for or protection against lymphedema” (priority 2004, published 2006).

Experiments:
humans = settings: doses exceeding 40 g/m^2
mice = settings: intravenously, doses higher than 3750 mg/kg
dogs = settings: intravenously, doses higher than 3750 mg/kg

SMILES | accepted oral LD50 | adverse effects (humans) | adverse effects (mice) | adverse effects (dogs)
[Cl-].[Na+] [common table salt] | 3750 mg/kg |  |  | 
O=S(=O)([O-])CCSSCCS(=O)(=O)[O-].[Na+].[Na+] [Dimesna, disodium 2,2′-dithiobis ethane sulfonate] |  | no adverse effects | no adverse effects | no adverse effects
